The values that follow come from ChEMBL document CHEMBL1201862, “PubChem BioAssay data set” (2004).

As usually defined, the AC50 is the concentration at which the activity in the assay is half-maximal. As a reminder, the EC50 is the concentration that produces a half-maximal response.

In assay [1] the target is Protein disulfide-isomerase (Homo sapiens, UniProt P07237). The experiment in a line: PDI inhibitors, insulin aggregation turbidity, dose response, biochemical, absorbance, cherry-picked samples (AID 602350). Format: functional.
For assay [2], the target named is 26S proteasome non-ATPase regulatory subunit 14 (Homo sapiens, UniProt O00487). The experiment in a line: inhibition of proteasome subunit RPN11 – biochemical, fluorescence polarization, uHTS hits, confirmation (AID 602368). Format: functional.
Assay [3] concerns the target 72 kDa type IV collagenase (Homo sapiens, UniProt P08253). The experiment in a line: Dose Response validation of uHTS RPN11 inhibitor hits using a MMP-2 Fluorescence assay. The class given is functional.
For a further assay, the target named is Prothrombin (Bos taurus, UniProt P00735). Briefly: thrombin inhibition, dose response, biochemical, fluorescence polarization, uHTS hits (AID 602369). The class given is functional. In general terms: In fluorescence polarisation assays a small probe gives low polarisation when free and higher when bound to something large.
Assay [4] concerns the target T1, Small ubiquitin-related modifier 1 (Homo sapiens, UniProt P63165). Briefly: inhibitors of SUMO1 peptide binding, dose response, biochemical, fluorescence polarization, uHTS hits (AID 624382). Format: functional. Particulars: read-out: IC50_Mean.
The target of assay [5] is T1, Small ubiquitin-related modifier 1. The experiment in a line: inhibitors of SUMO1 partner interactions, dose response, biochemical, FRET (AID 624383). The class given is functional. Particulars: read-out: IC50_Mean.
Assay [6] in a line: cells. The class given is functional, cell-based.
Assay [7] in a line: cells. Format: functional, cell-based. The source holds these as a separate data set.
Assay [8] deals with ATP-dependent translocase ABCB1 (Homo sapiens, UniProt P08183). Briefly: ABCB1 efflux pump inhibitor potency, dose response, Jurkat-DNR cells, JC-1, flow cytometry (AID 1689). Format: functional. In general terms: A flow cytometer gives signals particle by particle.
Assay [9] has as its target T2, Carboxy-terminal domain RNA polymerase II polypeptide A small phosphatase 1 (Homo sapiens, UniProt Q9GZU7).
T2 sequence (Q9GZU7 whole entry): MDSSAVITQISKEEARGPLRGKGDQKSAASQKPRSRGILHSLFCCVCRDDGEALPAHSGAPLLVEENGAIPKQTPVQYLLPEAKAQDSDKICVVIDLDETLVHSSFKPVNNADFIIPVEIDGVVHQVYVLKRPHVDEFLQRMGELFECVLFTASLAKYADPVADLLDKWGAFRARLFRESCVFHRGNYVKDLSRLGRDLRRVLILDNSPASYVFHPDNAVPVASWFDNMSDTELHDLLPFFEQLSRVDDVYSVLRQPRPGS
Briefly: inhibitors of CTDSP1, concentration-response testing, biochemical assay, absorbance-based, actives from ultra-high-throughput screening (AID 540297). The class given is functional.

Assay [10] has as its target Tyrosine-protein phosphatase non-receptor type 11 (Homo sapiens, UniProt Q06124). Briefly: SHP2 phosphatase inhibition, dose response, selectivity assay for STEP inhibitor project, biochemical (AID 602367). Format: functional. Particulars: read-out: IC50_Mean.
Assay [11] has as its target Tyrosine-protein phosphatase non-receptor type 5 (Homo sapiens, UniProt P54829). Briefly: STEP phosphatase inhibitors, confirmation, biochemical, fluorescence intensity, uHTS hits (AID 602372). The class given is functional. The conditions noted are these: read-out: IC50_Mean.
Assay [12] has as its target Dual specificity protein phosphatase 3 (Homo sapiens, UniProt P51452). Briefly: VHR phosphatase inhibition, dose response, selectivity assay for STEP inhibitor project, biochemical (AID 602374). Format: functional. Particulars: read-out: IC50_Mean.
The target in assay [13] is Adenosylmethionine-8-amino-7-oxononanoate aminotransferase (Mycobacterium tuberculosis, UniProt P9WQ81). The experiment in a line: Mycobacterium tuberculosis BioA enzyme inhibitor Measured in Biochemical System Using Plate Reader - 2163-02_Inhibitor_Dose_CherryPick_Activity. Format: functional, Mycobacterium tuberculosis UT205.
The subject of assay [14] is Streptococcus sp. 'group A'. The experiment in a line: growth inhibition of control SK(-) GAS strain, dose response, counter-screen for streptokinase expression inhibitor project, luminescence, kanamycin, BacTiterGlo, confirmation (AID 1900). The class given is functional, organism-based. (A counterscreen serves to expose hits that act by an unwanted route or on another target.)

The target in the next assay is T3, Streptokinase A (Streptococcus pyogenes serotype M1, UniProt P10520).
T3 sequence (P10520 whole entry): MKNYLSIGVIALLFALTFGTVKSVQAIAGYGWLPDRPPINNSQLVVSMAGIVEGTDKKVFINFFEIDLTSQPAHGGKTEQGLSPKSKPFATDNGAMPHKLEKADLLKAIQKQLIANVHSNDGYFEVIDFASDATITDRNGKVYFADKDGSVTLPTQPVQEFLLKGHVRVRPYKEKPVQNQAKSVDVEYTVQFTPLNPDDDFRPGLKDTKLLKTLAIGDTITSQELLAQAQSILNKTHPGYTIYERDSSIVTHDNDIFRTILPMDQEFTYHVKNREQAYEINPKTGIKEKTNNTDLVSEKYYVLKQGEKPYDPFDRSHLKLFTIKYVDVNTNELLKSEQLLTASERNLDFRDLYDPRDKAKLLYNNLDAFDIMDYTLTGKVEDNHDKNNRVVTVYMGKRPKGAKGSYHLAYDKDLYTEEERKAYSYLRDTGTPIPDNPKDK
The experiment in a line: S. pyogenes streptokinase expression inhibitors, potency, dose response, plasminogen activation absorbance, OD405 (AID 1914).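 Note: secreted streptokinase activity via plasminogen activation per viability signal from cell pellet.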 Format: functional, Streptococcus pyogenes M1 GAS.

Another assay concerns Streptococcus. Briefly: Group A Streptococcus viability loss, dose response, counter-screen for streptokinase expression inhibitor project, luminescence, BacTiterGlo (AID 1915).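 Note: potency for reduction of bacterial viability or growth.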 Format: functional, organism-based.
The target in assay [15] is DNA (cytosine-5)-methyltransferase 1 (Homo sapiens, UniProt P26358). The experiment in a line: DNMT1 methyltransferase inhibitors, confirmation, biochemical, fluorescent molecular beacon (AID 602386). Format: functional.
Assay [16] is described as follows: cells.

Structures are written as SMILES. The source made the active and inactive calls. Some results are limits rather than exact numbers.

T1 sequence (P63165 whole entry): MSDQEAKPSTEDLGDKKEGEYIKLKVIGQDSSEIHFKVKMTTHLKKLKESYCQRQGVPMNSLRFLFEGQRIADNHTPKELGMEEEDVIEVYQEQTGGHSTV
Sequence of 26S proteasome non-ATPase regulatory subunit 14 (O00487 whole entry): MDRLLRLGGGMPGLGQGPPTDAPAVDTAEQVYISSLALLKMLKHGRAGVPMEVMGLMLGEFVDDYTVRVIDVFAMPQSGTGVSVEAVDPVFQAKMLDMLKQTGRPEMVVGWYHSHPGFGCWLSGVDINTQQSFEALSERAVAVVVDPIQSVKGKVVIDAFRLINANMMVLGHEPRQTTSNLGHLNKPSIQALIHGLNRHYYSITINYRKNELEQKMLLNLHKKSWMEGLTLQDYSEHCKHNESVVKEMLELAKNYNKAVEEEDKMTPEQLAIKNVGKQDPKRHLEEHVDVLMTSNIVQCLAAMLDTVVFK
Sequence of 72 kDa type IV collagenase (P08253 whole entry): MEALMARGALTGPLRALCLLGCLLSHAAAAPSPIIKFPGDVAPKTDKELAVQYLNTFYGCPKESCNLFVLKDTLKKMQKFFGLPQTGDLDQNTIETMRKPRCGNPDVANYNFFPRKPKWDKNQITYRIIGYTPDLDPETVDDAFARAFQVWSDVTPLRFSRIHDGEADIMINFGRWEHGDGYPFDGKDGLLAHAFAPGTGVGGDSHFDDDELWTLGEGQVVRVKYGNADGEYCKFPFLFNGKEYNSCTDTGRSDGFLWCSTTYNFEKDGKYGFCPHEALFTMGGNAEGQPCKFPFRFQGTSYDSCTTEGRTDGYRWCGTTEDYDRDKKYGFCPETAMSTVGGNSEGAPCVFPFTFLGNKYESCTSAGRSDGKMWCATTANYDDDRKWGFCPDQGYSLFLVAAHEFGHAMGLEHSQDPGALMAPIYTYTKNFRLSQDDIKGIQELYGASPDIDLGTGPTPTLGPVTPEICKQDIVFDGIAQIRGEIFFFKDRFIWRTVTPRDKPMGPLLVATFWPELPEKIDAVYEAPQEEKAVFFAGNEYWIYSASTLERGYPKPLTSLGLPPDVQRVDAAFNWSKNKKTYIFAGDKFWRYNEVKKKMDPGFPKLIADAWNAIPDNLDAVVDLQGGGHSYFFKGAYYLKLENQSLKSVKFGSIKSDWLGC
Sequence of Tyrosine-protein phosphatase non-receptor type 5 (P54829 whole entry): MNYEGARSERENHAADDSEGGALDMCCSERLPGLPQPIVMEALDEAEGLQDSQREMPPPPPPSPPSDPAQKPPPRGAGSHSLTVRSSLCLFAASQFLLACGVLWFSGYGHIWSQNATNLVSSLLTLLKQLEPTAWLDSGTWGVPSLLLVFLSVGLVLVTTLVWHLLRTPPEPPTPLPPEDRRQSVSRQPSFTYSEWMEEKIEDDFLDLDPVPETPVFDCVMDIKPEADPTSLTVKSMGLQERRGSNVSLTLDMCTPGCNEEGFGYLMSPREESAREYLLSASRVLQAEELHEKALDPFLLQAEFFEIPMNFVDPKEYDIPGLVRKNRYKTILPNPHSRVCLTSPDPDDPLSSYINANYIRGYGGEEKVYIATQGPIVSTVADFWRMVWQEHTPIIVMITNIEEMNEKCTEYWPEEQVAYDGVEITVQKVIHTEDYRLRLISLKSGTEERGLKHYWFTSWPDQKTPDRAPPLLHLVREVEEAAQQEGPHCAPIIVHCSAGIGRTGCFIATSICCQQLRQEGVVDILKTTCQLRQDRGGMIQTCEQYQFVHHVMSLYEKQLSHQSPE
Sequence of DNA (cytosine-5)-methyltransferase 1 (P26358 whole entry): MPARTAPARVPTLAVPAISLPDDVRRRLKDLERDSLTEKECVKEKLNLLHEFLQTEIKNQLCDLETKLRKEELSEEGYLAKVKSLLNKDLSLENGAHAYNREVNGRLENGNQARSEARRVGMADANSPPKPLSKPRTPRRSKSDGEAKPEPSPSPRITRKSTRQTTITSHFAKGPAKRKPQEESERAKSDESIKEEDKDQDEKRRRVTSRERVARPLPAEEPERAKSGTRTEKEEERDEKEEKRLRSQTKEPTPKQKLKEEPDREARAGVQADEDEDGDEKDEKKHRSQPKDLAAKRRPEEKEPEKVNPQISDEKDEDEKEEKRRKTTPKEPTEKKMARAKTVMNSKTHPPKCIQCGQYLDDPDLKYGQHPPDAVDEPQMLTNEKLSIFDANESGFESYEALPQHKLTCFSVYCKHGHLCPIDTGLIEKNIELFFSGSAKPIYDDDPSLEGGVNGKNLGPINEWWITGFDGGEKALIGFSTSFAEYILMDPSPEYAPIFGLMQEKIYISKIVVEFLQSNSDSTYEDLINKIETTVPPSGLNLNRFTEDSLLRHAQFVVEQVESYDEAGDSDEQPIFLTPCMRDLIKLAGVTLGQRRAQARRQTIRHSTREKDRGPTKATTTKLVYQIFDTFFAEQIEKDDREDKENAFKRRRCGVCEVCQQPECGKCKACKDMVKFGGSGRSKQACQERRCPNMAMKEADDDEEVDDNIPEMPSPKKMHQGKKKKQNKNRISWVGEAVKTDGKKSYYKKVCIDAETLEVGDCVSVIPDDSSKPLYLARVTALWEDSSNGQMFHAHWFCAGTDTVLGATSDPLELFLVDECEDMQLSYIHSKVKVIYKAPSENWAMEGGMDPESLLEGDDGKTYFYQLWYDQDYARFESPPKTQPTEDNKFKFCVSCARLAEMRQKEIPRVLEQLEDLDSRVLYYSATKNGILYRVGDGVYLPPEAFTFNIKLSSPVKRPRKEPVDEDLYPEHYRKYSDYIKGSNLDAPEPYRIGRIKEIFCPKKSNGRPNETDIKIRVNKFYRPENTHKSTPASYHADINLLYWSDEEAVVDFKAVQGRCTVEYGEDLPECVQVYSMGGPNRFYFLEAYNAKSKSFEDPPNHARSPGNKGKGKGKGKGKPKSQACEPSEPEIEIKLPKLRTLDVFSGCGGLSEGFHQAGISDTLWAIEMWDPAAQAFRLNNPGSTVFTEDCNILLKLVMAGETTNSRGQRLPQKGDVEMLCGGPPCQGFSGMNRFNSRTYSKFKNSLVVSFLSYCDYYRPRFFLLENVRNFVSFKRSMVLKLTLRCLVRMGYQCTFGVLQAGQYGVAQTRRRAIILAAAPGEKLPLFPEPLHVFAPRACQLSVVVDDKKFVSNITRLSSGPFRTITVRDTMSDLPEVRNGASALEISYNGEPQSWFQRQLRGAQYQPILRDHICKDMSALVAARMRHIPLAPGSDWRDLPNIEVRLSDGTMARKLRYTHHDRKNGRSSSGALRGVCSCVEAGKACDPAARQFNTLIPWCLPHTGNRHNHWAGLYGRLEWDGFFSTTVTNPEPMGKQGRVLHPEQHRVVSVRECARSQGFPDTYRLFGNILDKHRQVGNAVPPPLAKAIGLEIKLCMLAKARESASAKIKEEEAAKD
Sequence of Protein disulfide-isomerase (P07237 whole entry): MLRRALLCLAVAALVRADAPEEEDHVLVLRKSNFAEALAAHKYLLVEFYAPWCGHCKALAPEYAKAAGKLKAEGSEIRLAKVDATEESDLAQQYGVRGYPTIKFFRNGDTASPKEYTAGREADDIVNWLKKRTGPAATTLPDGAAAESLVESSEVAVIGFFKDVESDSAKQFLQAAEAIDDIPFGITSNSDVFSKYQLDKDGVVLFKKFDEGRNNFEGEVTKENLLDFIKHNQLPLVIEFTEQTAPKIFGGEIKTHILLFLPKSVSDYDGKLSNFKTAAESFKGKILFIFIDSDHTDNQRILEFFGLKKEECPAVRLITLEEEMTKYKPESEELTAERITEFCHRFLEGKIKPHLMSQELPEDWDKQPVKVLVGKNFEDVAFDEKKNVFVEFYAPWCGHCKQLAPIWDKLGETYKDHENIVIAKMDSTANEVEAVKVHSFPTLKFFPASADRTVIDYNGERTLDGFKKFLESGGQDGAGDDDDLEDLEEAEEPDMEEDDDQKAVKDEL
Sequence of ATP-dependent translocase ABCB1 (P08183 whole entry, the tested form may be a part): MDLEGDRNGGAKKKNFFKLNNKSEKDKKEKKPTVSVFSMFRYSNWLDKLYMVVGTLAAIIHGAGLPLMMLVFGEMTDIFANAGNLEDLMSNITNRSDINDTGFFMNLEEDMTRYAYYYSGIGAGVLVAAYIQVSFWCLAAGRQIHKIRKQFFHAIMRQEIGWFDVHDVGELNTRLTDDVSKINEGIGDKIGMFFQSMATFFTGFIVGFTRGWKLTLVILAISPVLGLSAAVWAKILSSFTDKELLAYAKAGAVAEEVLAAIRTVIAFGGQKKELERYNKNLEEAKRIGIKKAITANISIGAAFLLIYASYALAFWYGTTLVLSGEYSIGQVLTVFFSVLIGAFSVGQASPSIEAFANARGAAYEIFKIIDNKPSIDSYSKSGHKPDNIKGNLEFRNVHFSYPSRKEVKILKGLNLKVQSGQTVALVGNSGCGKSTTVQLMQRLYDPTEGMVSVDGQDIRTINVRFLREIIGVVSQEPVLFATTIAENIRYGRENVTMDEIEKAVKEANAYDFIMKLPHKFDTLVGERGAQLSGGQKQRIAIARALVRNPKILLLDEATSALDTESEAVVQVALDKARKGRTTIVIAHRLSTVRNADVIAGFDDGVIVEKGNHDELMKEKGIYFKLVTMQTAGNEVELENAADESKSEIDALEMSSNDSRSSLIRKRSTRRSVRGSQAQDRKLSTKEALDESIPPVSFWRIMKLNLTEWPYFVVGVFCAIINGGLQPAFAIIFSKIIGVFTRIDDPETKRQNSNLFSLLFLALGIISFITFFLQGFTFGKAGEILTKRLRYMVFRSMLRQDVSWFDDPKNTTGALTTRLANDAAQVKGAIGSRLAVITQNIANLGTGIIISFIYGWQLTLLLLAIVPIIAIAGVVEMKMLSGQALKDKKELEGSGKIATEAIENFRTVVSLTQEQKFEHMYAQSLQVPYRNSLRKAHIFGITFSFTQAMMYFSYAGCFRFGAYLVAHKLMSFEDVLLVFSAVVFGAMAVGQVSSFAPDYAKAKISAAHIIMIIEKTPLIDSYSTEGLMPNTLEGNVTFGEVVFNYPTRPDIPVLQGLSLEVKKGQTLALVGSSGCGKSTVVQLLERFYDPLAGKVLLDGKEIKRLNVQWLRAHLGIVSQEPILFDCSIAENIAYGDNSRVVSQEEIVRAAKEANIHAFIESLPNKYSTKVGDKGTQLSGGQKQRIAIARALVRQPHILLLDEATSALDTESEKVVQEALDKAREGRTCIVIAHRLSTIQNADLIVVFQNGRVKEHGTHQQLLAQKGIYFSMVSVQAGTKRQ

In the case of `COc1ccccc1N1CCN(C(=O)C(=O)N/N=C/c2cccc(O)c2)CC1`, the half-maximal activity concentration (AC50) in assay [1] is 19.5 µM (active).
Consider `O=c1cc(-c2ccc(O)cc2)oc2c1ccc1ccccc12`, for which the IC50 in assay [2] is 47.7 µM (active); in assay [3], > 100 µM (inactive); at Prothrombin, 62.2 µM (active); in assay [4], > 66.6 µM (inactive); in assay [5], 7.87 µM (active).
On to `COc1ccc(/C=N/NC(=O)c2cccnc2)cc1CN1CCN(c2ccc(F)cc2)CC1`, for which the concentration for a half-maximal effect (EC50) in the assay “cells [6]” is > 350 µM (not active); in the assay “cells [7]”, > 350 µM (not active); in assay [8] it was 1.01 µM (active).
`CCCCCn1c(N)c(-c2nc3ccccc3o2)c2c([N+](=O)[O-])nn(C)c(=O)c21`: the IC50 in [9] was 3.06 µM (active); in assay [10] it was 0.738 µM (active); in assay [11] it was > 80 µM (inactive); in assay [12], 0.343 µM (active).
`CC(=O)Nc1ccc2[nH]c(-c3cccnc3)nc2c1`: the AC50 in assay [13] was 4.1 µM (active).
As to `CCOC(=O)C1=C(C)N=c2s/c(=C/c3ccc(OCC(=O)O)c(OC)c3)c(=O)n2C1c1ccc(Cl)cc1` (configuration not stated), the concentration for a half-maximal effect (EC50) in [14] was 9.79 µM (active); on Streptokinase A, > 150 µM (not active); with Streptococcus it was 13.2 µM (active). The IC50 is 10.2 µM (active) in assay [15]; 11.7 µM (active) in [2]; > 100 µM (inactive) in [3]; 25.1 µM (active) at Prothrombin; 45.5 µM (active) in the assay “cells [16]”.
